Results taken from PMC12040169 (PLOS Biology, 2025).

Test: in vitro
Settings: human, hela cells, % viability

| Structure (SMILES) | viability at 28.5 h, 10 µM [%] |
| --- | --- |
| CCSc1nnc2c(n1)OC(C1CC=C(C)CC1)Nc1ccccc1-2 (stereo not drawn) [CBK262367] | 95.5 |
| N#C/C(=C\c1ccc(O)cc1)c1nc(-c2ccc3c(c2)OCO3)cs1 [CBK262370] | 96.8 |
| O=C(O)c1ccc(/C=N/Nc2cccc3cccnc23)cc1 [CBK262372] | 74.4 |
| Cc1cccc2c1[nH]c1nc(N/N=C\c3ccc(-c4cccc([N+](=O)[O-])c4)o3)nnc12 [CBK262373] | 96 |
| COc1ccc(-c2csc(/C(C#N)=C/Nc3ccc(S(=O)(=O)Nc4nccs4)cc3)n2)cc1 [CBK262374] | 94.6 |
| CC(=O)Nc1ccc(N/C=C(/C#N)c2nc(-c3ccc([N+](=O)[O-])cc3)cs2)cc1 [CBK262377] | 106 |
| Cc1cccc(Nc2nc3nonc3[nH]/c2=N\N=C/c2cn(Cc3ccc(Cl)cc3Cl)c3ccccc23)c1C [CBK262378] | 93.3 |
| COc1cc(C2C3=C(CC(C)(C)CC3=O)OC3=C2C(=O)CC(C)(C)C3)ccc1OCC(=O)O [CBK262379] | 94.8 |
| CN1CCN(c2cc(N3CCN(C)CC3)c([N+](=O)[O-])cc2C2Nc3ccc4ccccc4c3C3=C2C(=O)CC(C)(C)C3)CC1 (stereo not drawn) [CBK262381] | 93.9 |
| CN1CCN(C(=O)CCCN2C(=O)c3cccc4cccc(c34)C2=O)CC1 [CBK262383] | 96.9 |
| O=S(=O)(Oc1ccc2ccccc2c1)c1ccc2c(c1)Cc1cc(S(=O)(=O)Oc3ccc4ccccc4c3)ccc1-2 [CBK262385] | 105 |
| COc1ccc(CN(/N=N/c2nonc2C)c2nonc2C)cc1[N+](=O)[O-] [CBK262386] | 99.3 |
| Cc1ccc(S(=O)(=O)N(CC(=O)O)c2cccc(Cl)c2)cc1 [CBK262387] | 91.7 |
| COC(=O)c1ccccc1NC(=O)C(C)Oc1ccc(Cl)cc1C (stereo not drawn) [CBK262388] | 79.2 |
| COc1ccc(N(C(C)C(=O)NN=C2CCN(C)CC2)S(C)(=O)=O)cc1 (stereo not drawn) [CBK262390] | 94.2 |
| Cc1cc(C)cc(OCC(=O)NNC(=O)CN2C(=O)c3ccccc3C2=O)c1 [CBK262394] | 91.4 |
| O=C(CN1C(=O)S/C(=C\c2ccc(Cl)cc2)C1=O)Nc1cc([N+](=O)[O-])ccc1O [CBK262396] | 90.4 |
| Cc1ccc(N(CC(=O)N/N=C/C(C)C)S(=O)(=O)c2ccccc2)c(C)c1 [CBK262397] | 92.5 |
| Cc1nonc1/N=N/N(CC(=O)N1CCOCC1)c1nonc1C [CBK262399] | 103 |
| O=C(N/N=C/c1c(O)ccc2ccccc12)c1cnccn1 [CBK262400] | 105 |
| O=C(CSc1ncccn1)N/N=C/c1ccncc1 [CBK262401] | 103 |
| COc1ccc(N(C(C)C(=O)N/N=C(\C)c2ccccc2O)S(C)(=O)=O)cc1 (stereo not drawn) [CBK262402] | 93.4 |
| CCOc1cc(/C=N/NC(=O)CSc2nc(C)cc(C)n2)ccc1O [CBK262405] | 96.1 |
| Cc1ccc2ccccc2c1CN(/N=N/c1nonc1C)c1nonc1C [CBK262412] | 99.6 |
| CN(C)c1ccc(NC(=O)C(Cc2ccccc2)N2C(=O)c3ccccc3C2=O)cc1 (stereo not drawn) [CBK262413] | 99.6 |
| COc1ccc(N(CC(=O)O)S(=O)(=O)c2ccccc2)c(OC)c1 [CBK262415] | 108 |

| Structure (SMILES) | viability at 28.5 h, 10 µM [%] |
| --- | --- |
| CCc1nnc(NS(=O)(=O)c2ccc(N/C=C3\C(=O)N(c4ccc(Cl)cc4)N=C3C)cc2)s1 [CBK262416] | 110 |
| N#Cc1c(NC(=O)CSc2nnc3c(n2)[nH]c2ccccc23)sc2c1CCCC2 [CBK262417] | 93 |
| CS(=O)(=O)N(CC(=O)O)c1cccc2ccccc12 [CBK262420] | 101 |
| Cc1ccc(Cl)cc1N(CC(=O)O)S(=O)(=O)c1ccccc1 [CBK262424] | 93 |
| Cc1c(C)n(Cc2ccccc2)c2ccc(C(=O)OCCN3CCOCC3)cc12 [CBK262427] | 104 |
| CC1=NN(c2nc(-c3ccc(Br)cc3)cs2)C(=O)C1/N=N/c1cccc(CO)c1 (stereo not drawn) [CBK262429] | 104 |
| Cc1cc(C)cc(CC(C)Cc2nc3ccccc3[nH]2)c1 (stereo not drawn) [CBK262432] | 92.3 |
| CC1=NN(c2nc(-c3cccc([N+](=O)[O-])c3)cs2)C(=O)C1/N=N/c1ccc(S(N)(=O)=O)cc1 (stereo not drawn) [CBK262434] | 94 |
| COc1cc(Cl)cc(/C=N/Nc2nc(Nc3ccc(C)c(Cl)c3)nc(N3CCOCC3)n2)c1O [CBK262436] | 102 |
| CC1=NN(c2nc(-c3ccc(Br)cc3)cs2)C(=O)C1/N=N/c1ccccc1C(=O)O (stereo not drawn) [CBK262440] | 91.8 |
| CCOc1nc(Nc2nc(-c3ccccc3)cs2)nc(OCC)n1 [CBK262442] | 98.1 |
| O=C(CN1CCSCC1)NNC(=S)Nc1ccccc1 [CBK262445] | 102 |
| CC12CCC(C(=O)N(CC(O)Cn3c4ccc(Br)cc4c4cc(Br)ccc43)C1=O)C2(C)C (stereo not drawn) [CBK262449] | 94.4 |
| CCNC(=O)c1c(O)nc2ccccc2c1O [CBK262450] | 103 |
| N=c1n(CCN2CCCCC2)c2ccccc2n1CC(O)COc1ccccc1 (stereo not drawn) [CBK262451C] | 88.5 |
| CCCC(=O)Nc1sc(C)c(C)c1C(=O)Nc1ccccc1OC [CBK262455] | 104 |
| CC(=O)c1cccc(NC(=O)/C(=C\c2cccnc2)NC(=O)c2ccc(C)cc2)c1 [CBK262456] | 88.6 |
| O=C(NNC1=C(C(=O)C(F)(F)F)CCC1)c1cccnc1 [CBK262459] | 89.1 |
| c1csc(CNc2nc3ccccc3n2CCN2CCOCC2)c1 [CBK262462] | 109 |
| Cc1ccc([N+](=O)[O-])cc1NC(=O)C1Cc2ccccc2CN1C(=O)OCc1ccccc1 (stereo not drawn) [CBK262463] | 100 |
| CC1(c2ccccc2)CC(C)(C)N(C(=O)CSc2nc3ccccc3o2)c2ccccc21 (stereo not drawn) [CBK262466] | 104 |
| C/C(=N\NC(=N)SC1CC(=O)N(c2ccc(C(=O)O)cc2)C1=O)c1cccs1 (stereo not drawn) [CBK262471] | 103 |
| Cc1ccc(C2=NN(C(=N)SC3CC(=O)N(c4ccc(C(=O)O)cc4)C3=O)C(c3ccc(Cl)cc3)C2)cc1 (stereo not drawn) [CBK262472] | 91.5 |
| Oc1ccc(/C=N/c2ccc(O)c(-c3nc4ccccc4s3)c2)cc1O [CBK262473] | 98.9 |
| CC(=O)CCc1oc2c([N+](=O)[O-])cccc2c1-c1ccc(C)o1 [CBK262476] | 89.4 |
| O=C(O)c1ccc(S(=O)(=O)NC2CCS(=O)(=O)C2)cc1 (stereo not drawn) [CBK262477] | 110 |

| Structure (SMILES) | viability at 28.5 h, 10 µM [%] |
| --- | --- |
| Cc1ccc(S(=O)(=O)N(CC(=O)N/N=C\c2ccc3c(c2)OCO3)c2cccc3cccnc23)cc1 [CBK262478] | 101 |
| CC(C)(C)c1cc(C(=O)Cn2c(=N)n(Cc3ccccc3)c3ccccc32)cc(C(C)(C)C)c1O [CBK262480B] | 97.5 |
| N=c1n(CC(=O)c2ccc(Br)s2)c2ccccc2n1Cc1ccccc1 [CBK262482B] | 91.4 |
| O=C(O)c1cc(N/N=C/c2ccc(-c3ccc(Cl)c(C(=O)O)c3)o2)ccc1Cl [CBK262483] | 88.8 |
| Cc1ccc(C(=O)O/C(=C/c2nc3ccccc3n2Cc2cccc3ccccc23)c2ccc(C)cc2)cc1 [CBK262485] | 108 |
| CN1CCC(=NNC(=O)CN(c2cccc(Cl)c2)S(=O)(=O)c2ccccc2)CC1 [CBK262489] | 98 |
| NC(=O)CN(CC(N)=O)S(=O)(=O)c1ccccc1 [CBK262490] | 85.4 |
| O=C1Nc2ccc([N+](=O)[O-])cc2C1(O)N1CCCCC1 (stereo not drawn) [CBK262496] | 80.6 |
| Cc1cccc(Nc2nc(N/N=C/c3c[nH]nc3-c3ccccc3)nc(N3CCC(C)CC3)n2)c1C [CBK262498] | 89.3 |
| O=C(CN(Cc1ccccc1)S(=O)(=O)c1ccc2c(c1)OCCO2)Nc1ccc2c(c1)OCCO2 [CBK262499] | 98.5 |
| COc1ccc(NC(=O)C2CN(S(=O)(=O)c3ccccc3)CCN2S(=O)(=O)c2ccccc2)cc1 (stereo not drawn) [CBK262500] | 98.5 |
| NS(=O)(=O)c1ccc(Nc2nc(-c3cccs3)cs2)cc1 [CBK262502] | 96.2 |
| Cc1cc(NS(=O)(=O)c2ccc(Nc3nc(-c4cccs4)cs3)cc2)no1 [CBK262504] | 101 |
| COc1ccc([N+](=O)[O-])cc1-c1ccc(/C=N/NC(=O)Cn2nnnc2N)o1 [CBK262505] | 92.2 |
| O=C(CSc1ccc2ccccc2n1)NNC(=O)c1cccc([N+](=O)[O-])c1 [CBK262506] | 91.7 |
| CC1=CC(C)C(CN(CCC[N+](C)(C)C)C(=O)Nc2ccccc2)C(C)C1 (stereo not drawn) [CBK262507I] | 84.3 |
| COc1ccc2c(c1)nc(SCC(O)c1ccccc1)n2C (stereo not drawn) [CBK262508] | 97.6 |
| O=C(CC1Nc2ccccc2NC1=O)Nc1cccc(C(F)(F)F)c1 (stereo not drawn) [CBK262510] | 99.6 |
| O=[N+]([O-])c1cnc(NCCCn2ccnc2)c([N+](=O)[O-])c1 [CBK262511] | 94.4 |
| O=C1CN(S(=O)(=O)c2ccc(NS(=O)(=O)c3ccc4ccccc4c3)cc2)CC(=O)N1 [CBK262513] | 95.4 |
| O=C(O)c1cc(S(=O)(=O)NC(CO)C(O)c2ccc([N+](=O)[O-])cc2)ccc1Br (stereo not drawn) [CBK262515] | 104 |
| CC1(NC(=O)CC[N+]23CCN(CC2)CC3)CS(=O)(=O)CC1S(=O)(=O)[O-] (stereo not drawn) [CBK262518] | 92 |
| O=C1CC(c2ccccc2)CC(=O)C1=CNCc1ccccn1 (stereo not drawn) [CBK262521] | 105 |
| O=C(Nc1ccc(Cc2ccncc2)cc1)c1ccc(CSc2ccc(Cl)cc2)cc1 [CBK262526] | 86.9 |
| O=C1c2cccc3cccc(c23)C(=O)N1CCN1CCN(S(=O)(=O)c2ccccc2[N+](=O)[O-])CC1 [CBK262530] | 97.7 |
| Cc1ccc2c(c1)c(-c1ccccc1)c(-c1ccccc1)n2CC(O)Cn1cnc(-c2ccccc2)c1-c1ccccc1 (stereo not drawn) [CBK262531] | 72.7 |

Same assay, conditions: human, hela cells, % viability, bulk resorufin, single well

| Structure (SMILES) | viability at 28.5 h, 10 µM [%] |
| --- | --- |
| O=C1NC(=S)NC(=O)C1=CNc1ccc(F)c(Cl)c1 [CBK262391] | 118 |
| Cc1c([N+](=O)[O-])c([N+](=O)[O-])nn1CC(=O)NCc1cccnc1 [CBK262428] | 97.2 |
| COc1cc(C=C2C(=O)NC(=O)NC2=O)cc(I)c1OCc1ccc(Cl)cc1Cl [CBK262528] | 91.8 |
